Entries after “also recorded” stand apart in the source; their conditions may differ. Where two headings read alike, the source gives them in different places.

For data set [1], the target named is CYP3A4 (Homo sapiens, UniProt P08684). The data set is described as follows: Early toxicity: CYP3A4 inhibition. In kind it is in vitro ADME. Conditions: Table 4a; for inhibition at 10 µM: human, mean ± SD, read-out: % inhibition CYP3A4.
The test system of data set [2] is W1-38. The data set is described as follows: Early toxicity: W1-38 cell growth. The class given is cell-based. Conditions: 10 μM.
Data set [3] deals with T. b. brucei L427 WT Blood-Stream Form. Nature of the data set: Anti-parasitic activity against T. b. brucei blood-stream form (resazurin 72 h assay). The conditions noted are these: Table 2; for inhibition at 10 µM: read-out: Single Dose Assay 10 μM Mean Inhibitory Activity (%) ± SD. In kind it is cell-based.
Data set [4] concerns the target CYP2C19 (Homo sapiens, UniProt P33261). Nature of the data set: Early toxicity: CYP2C19 inhibition. The class given is in vitro ADME. The conditions noted are these: Table 4a; for inhibition at 10 µM: human, mean ± SD.
Data set [5] deals with A549. The data set is described as follows: Early toxicity: A549 cell growth. Conditions: 10 μM; 100% = not cytotoxic, 0% = cytostatic, −100% = cytotoxic. In kind it is cell-based.
The test system of data set [6] is L. infantum (MHOM/MA/67/ITMAP-263) intracellular amastigotes. Nature of the data set: Anti-parasitic activity against L. infantum intracellular amastigotes (infection with axenic amastigotes luciferase positive). The class given is cell-based. Conditions: Table 1; for inhibition at 10 µM: read-out: Single Dose Assay 10 μM Mean Inhibitory Activity (%) ± SD.
For data set [7], the target named is T1, CYP1A2 (Homo sapiens, UniProt P05177).
T1 sequence (P05177 1-516): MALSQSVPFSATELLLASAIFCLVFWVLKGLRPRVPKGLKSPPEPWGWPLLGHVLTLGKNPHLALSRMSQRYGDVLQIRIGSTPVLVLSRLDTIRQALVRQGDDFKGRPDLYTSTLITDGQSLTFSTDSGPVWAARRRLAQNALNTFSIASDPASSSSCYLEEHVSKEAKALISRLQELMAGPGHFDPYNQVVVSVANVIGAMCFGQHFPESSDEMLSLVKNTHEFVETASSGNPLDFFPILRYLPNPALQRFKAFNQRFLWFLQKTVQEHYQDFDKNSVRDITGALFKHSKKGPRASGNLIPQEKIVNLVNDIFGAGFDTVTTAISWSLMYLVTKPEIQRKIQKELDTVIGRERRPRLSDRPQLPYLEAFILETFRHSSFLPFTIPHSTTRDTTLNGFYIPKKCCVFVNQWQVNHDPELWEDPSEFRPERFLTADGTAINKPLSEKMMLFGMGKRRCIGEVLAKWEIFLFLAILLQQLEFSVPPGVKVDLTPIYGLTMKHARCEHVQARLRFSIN
The data set is described as follows: Early toxicity: CYP1A2 inhibition. In kind it is in vitro ADME. Conditions: human, mean ± SD, Table 4a.

Data set [8] deals with CYP2C9 (Homo sapiens, UniProt P11712). Nature of the data set: Early toxicity: CYP2C9 inhibition. In kind it is in vitro ADME. The conditions noted are these: human, mean ± SD, Table 4a.
Sequence of CYP2C9 (P11712 whole entry): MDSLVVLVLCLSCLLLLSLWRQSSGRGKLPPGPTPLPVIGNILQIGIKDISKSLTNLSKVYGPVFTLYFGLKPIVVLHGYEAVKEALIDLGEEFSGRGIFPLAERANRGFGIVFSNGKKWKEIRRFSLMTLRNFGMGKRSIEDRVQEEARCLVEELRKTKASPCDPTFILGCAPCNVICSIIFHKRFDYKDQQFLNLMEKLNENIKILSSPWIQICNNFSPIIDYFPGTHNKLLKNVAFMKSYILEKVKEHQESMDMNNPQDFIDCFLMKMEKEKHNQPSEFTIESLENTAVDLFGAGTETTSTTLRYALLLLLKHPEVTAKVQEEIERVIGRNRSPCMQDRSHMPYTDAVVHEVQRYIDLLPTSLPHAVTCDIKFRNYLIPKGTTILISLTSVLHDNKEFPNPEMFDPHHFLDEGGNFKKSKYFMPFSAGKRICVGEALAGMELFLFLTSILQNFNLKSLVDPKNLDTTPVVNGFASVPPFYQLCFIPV
A short description of data set [9]: Toxicity MTT assay in PMA-differentiated THP-1 cells. In kind it is cell-based, human. The conditions noted are these: human, PMA-differentiated THP-1 cells (macrophages); for CC50: THP-1 macrophages, Table 1, read-out: Toxicity CC50 ± SD or NOAEL; for IC50: Table 4b, read-out: Cytotoxicity THP-1 (IC50). The text has this:
(§1) The in vitro antiparasitic activity against L. infantum (MHOM/MA/67/ITMAP-263) and the toxicity against THP-1 macrophages is presented in Table 1.

Data set [10] concerns PMA-differentiated THP-1 cells. The description is as above. In kind it is cell-based, human. The conditions noted are these: Table 2; read-out: Toxicity CC50 ± SD or NOAEL.
Text: as §1

Data set [11] relates to mitochondria. The data set is described as follows: Early toxicity: mitochondrial toxicity. The class given is cell-based. Conditions: for % mitochondrial toxicity: 10 μM, 100% mitotoxic, 0% not mitotoxic.
Data set [12] deals with CYP2D6 (Homo sapiens, UniProt P10635). Nature of the data set: Early toxicity: CYP2D6 inhibition. The conditions noted are these: Table 4a; for inhibition at 10 µM: human, mean ± SD. The class given is in vitro ADME.
Sequence of CYP2D6 (P10635 whole entry): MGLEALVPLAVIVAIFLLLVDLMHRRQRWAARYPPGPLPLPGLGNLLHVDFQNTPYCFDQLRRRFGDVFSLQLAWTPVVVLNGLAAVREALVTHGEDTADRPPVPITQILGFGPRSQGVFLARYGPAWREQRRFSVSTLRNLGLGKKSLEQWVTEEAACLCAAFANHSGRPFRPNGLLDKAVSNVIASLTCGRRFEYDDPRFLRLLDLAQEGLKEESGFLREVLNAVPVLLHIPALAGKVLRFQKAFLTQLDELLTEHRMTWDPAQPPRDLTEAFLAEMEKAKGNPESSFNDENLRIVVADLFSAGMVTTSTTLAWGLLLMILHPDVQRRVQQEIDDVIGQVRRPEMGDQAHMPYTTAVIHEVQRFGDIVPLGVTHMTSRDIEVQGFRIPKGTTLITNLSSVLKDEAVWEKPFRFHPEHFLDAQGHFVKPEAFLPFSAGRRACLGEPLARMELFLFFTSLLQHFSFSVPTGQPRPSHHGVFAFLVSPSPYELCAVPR
Data set [13] has as its target hERG channel (Homo sapiens, UniProt Q12809). Nature of the data set: Early toxicity: hERG inhibition. The conditions noted are these: for Flag for Interference, hERG: Table 4b; for inhibition at 10 µM: human.
Data set [14] can be described thus: Snapshot pharmacokinetics in plasma after oral gavage. In kind it is in vivo, mice. The conditions noted are these: mouse, plasma, po, healthy BALB/c mice, 20 mg/kg gavage, Table 13. As to the method:
Pharmacology of 5-cyclopentadecylpentyl (2-(trimethylammonio)ethyl) phosphate (19) in mice.
Blood samples were collected from the tail vein at 0, 0.5, 0.75, 1, 3, 24 and 72 hours into heparinized tubes. Moreover, biodistribution of the molecule, 72h after administration, was determined in several organs of the treated mice, namely brain, liver, spleen, kidney, heart and bone marrow. […] J Chromatogr B, 865: 55-62) by liquid chromatography mass spectrometry (LC-MS/MS).

In data set [15] the test system is L. infantum axenic amastigotes expressing luciferase. The data set is described as follows: In vivo model of infection with L. infantum axenic amastigotes expressing luciferase. The conditions noted are these: ten consecutive oral treatments with 10 mg/kg, 2 weeks after last treatment. As to the method: FIG. 4 illustrates the in vivo activity of compounds 18 and 19 in a model of infection with L. infantum axenic amastigotes expressing luciferase (10 consecutive treatments with 10 mg/kg of each compound, evaluated by limiting dilution assay 2 weeks after the last treatment).
In vivo activity of compounds 18 and 19 (ten consecutive oral treatments with 10 mg/kg of each compound, followed by a break of 2 weeks after last treatment), was studied in a model of infection with axenic amastigotes expressing luciferase, essentially as described in (Mendes Costa D. et al, J. Sci Rep. 2019 Dec. 12; 9(1):18989; Tavares J. et al., Methods Mol Biol. 2019; 1971:289-301). (FIG. 4).

Sequence of CYP3A4 (P08684 whole entry): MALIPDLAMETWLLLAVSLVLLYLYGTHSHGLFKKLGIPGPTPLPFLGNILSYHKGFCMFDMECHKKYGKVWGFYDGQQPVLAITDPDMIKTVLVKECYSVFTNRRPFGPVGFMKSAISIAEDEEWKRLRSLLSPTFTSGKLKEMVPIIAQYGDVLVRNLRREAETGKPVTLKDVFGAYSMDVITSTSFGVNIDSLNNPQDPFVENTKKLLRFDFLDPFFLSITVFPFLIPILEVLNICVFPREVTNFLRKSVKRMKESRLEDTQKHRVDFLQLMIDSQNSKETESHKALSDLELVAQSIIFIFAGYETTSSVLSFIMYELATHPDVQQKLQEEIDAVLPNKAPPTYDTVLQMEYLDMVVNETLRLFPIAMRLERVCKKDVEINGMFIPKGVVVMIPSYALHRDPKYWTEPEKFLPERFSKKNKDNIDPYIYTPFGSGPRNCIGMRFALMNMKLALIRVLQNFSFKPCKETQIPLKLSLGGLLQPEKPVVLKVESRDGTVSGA
Sequence of hERG channel (Q12809 whole entry): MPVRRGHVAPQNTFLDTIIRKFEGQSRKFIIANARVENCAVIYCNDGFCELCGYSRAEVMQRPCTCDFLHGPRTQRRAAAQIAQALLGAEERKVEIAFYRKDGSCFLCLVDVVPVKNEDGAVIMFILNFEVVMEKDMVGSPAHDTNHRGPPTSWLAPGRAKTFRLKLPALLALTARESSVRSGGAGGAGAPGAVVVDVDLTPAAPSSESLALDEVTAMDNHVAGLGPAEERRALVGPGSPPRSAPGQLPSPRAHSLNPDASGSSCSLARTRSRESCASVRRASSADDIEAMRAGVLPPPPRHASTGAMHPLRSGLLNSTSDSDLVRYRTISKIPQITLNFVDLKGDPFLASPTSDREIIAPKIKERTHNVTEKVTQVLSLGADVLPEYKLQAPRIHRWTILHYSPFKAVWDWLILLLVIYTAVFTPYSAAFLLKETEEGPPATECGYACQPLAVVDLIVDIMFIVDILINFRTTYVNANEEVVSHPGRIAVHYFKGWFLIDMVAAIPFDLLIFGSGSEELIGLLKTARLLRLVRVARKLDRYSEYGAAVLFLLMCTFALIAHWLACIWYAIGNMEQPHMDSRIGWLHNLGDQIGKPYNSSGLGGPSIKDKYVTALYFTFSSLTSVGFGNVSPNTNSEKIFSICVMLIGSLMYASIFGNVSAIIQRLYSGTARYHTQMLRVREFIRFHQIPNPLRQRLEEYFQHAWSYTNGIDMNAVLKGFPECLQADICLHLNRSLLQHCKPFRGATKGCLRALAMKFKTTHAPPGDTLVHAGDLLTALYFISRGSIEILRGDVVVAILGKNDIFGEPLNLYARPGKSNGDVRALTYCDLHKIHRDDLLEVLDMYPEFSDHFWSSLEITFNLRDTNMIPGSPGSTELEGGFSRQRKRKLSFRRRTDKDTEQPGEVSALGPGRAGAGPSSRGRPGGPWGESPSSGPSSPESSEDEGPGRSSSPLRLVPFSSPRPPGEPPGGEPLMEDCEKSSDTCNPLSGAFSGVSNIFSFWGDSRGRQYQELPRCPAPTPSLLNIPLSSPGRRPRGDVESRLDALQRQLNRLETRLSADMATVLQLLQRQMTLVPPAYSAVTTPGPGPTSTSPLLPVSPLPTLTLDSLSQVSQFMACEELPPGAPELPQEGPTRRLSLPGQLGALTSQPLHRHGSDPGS
Sequence of CYP2C19 (P33261 whole entry): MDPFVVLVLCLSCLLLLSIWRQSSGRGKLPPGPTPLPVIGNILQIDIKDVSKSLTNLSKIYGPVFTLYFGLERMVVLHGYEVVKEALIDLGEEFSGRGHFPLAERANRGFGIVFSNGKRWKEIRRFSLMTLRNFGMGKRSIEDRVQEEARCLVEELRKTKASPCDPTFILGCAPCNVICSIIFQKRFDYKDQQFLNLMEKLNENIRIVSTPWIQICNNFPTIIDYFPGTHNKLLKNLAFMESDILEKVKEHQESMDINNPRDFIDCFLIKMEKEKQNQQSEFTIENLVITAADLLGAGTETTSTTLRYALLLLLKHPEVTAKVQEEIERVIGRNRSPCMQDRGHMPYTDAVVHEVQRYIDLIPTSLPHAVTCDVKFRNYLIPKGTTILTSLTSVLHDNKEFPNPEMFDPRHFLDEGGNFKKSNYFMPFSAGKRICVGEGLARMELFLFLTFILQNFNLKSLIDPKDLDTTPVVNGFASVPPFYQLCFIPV

For `C[N+](C)(C)CCCOP(=O)([O-])OCCCCC=C1CCCCCCCCCCCCCC1` [Compound 15, 5-cyclopentadecylidenepentyl (3-(trimethylammonio)propyl) phosphate], the inhibition at 10 µM in data set [1] amounted to 23.4 ± 1.94%; in [3] (Trypanosoma brucei), 14 ± 5%; in data set [4] it was 42 ± 7.27%; in data set [6] (Leishmania infantum), 49 ± 1%; in [7], 9.44 ± 2.84%; in [8], 15.6 ± 6.17%. The inhibition at 10 µM in [12] turned out to be 32.4 ± 2.88%; in [13], 15.5 ± 4.66%. Besides, the “% cell growth W1-38” value in data set [2] is on record as 124.02 ± 7.42%. The “% cell growth A549” value in data set [5] is listed as 112.20 ± 6.11%. In addition, the CC50 in [9] and in data set [10] was greater than 100 µM in each case. In addition, in [9], the half-inhibitory concentration (IC50) was greater than 100 µM. Moreover, in [11], the “% mitochondrial toxicity” value is reported as 1.08 ± 12.57%. Besides, the “Flag for Interference, hERG” value in data set [13] is “(no)”.

On to `C[N+](C)(C)CCOP(=O)([O-])OCCCCC1CCCCCCCCCCCCCC1` [Compound 18, 4-cyclopentadecylbutyl (2-(trimethylammonio)ethyl) phosphate], for which, in data set [1], the “CYP3A4 interaction” value is on record as “interact”. The inhibition at 10 µM came to 38.1 ± 2.67% in data set [1]; 91 ± 12% in data set [3] (Trypanosoma brucei); 33.3 ± 4.67% in [4]; 97 ± 2% in data set [6] (Leishmania infantum); 14 ± 1.17% in [7]; 5.66 ± 5.52% in [8]. The inhibition at 10 µM was found to be 64.5 ± 2.92% in [12] and 34.8 ± 14% in data set [13]. Besides, the “activity against T. b. brucei blood-stream form” value in data set [3] is given as “unexpectedly high activity in the low micromolar range”. Also, the half-maximal inhibitory concentration (IC50) in data set [3] (Trypanosoma brucei, resazurin 72 h, read-out: Dose Response Curves IC50 ± SD) was 7.44 ± 0.65 µM; in data set [6] (Leishmania infantum, read-out: Dose Response Curves IC50 ± SD), 0.6 ± 0.3 µM; in data set [9], greater than 100 µM. Further, the “Selectivity Index CC50/IC50 or NOAEL/IC50” value in data set [3] (toxicity / T. b. brucei IC50) is reported as greater than 13; in [6] (THP-1 toxicity / L. infantum IC50) it was greater than 166. Moreover, in [4] (10 μM), the “CYP2C19 interaction / inhibition” value is on record as “interact; also recorded: significant inhibition”. Moreover, the “% cell growth A549” value in [5] came to 132.80 ± 8.98%. Besides, the AUC(0-inf) came out at 262 µg·h/mL in data set [14] (read-out: AUC (0-∞)) and 586 µM·h in data set [14] (read-out: AUC (0-∞) (μM h/mL)). Moreover, the Cmax came out at 20.3 µM in data set [14] (read-out: Cmax) and 9.1 µg/mL in [14] (read-out: Cmax (μg/mL)). The Tmax in data set [14] (read-out: tmax) was 5 h. Also, in data set [14] (read-out: t½ (converted)), the half-life is 16.3 h. Besides, the CC50 in data set [9] and in data set [10] was greater than 100 µM each time. The “% mitochondrial toxicity” value in data set [11] is listed as 109.49 ± 9.62%. In addition, the “mitochondrial toxicity” value in [11] (Table 4b) was “exhibit mitochondrial toxicity”. Besides, the “CYP2D6 interaction / inhibition” value in [12] (10 μM) was “interact; also recorded: significant inhibition”. Moreover, the “parasitic burden in the spleen, liver or bone marrow” value in [15] was “not effective”. Moreover, the “Flag for Interference, hERG” value in data set [13] is given as “(no)”.

Values taken from patent US20230365602A1, “COMPOUND FOR USE IN THE TREATMENT OF PROTOZOAL DISEASES AND PROCESS FOR PRODUCTION OF SAID COMPOUND” (QUADREL S.R.L., priority 2020, published 2023).
